Like-named read-outs stand apart in the source and are kept apart here. Starred links: 1 amine or outer side, 2 acyl side, 3 side chain; linkers in the order of their positions; H or OH if unused. Positions of bridges follow the written chain, without caps; N, C: chain ends. Non-standard residues stand in square brackets, D forms with d. Residues, ends and D or L forms follow the SMILES beside them. Groups on a side chain read outwards from the residue. No end group written: not given here. *: point of attachment. Ala(7-OPO3H2-coumarin-4-yl) = N[C@@H](Cc1cc(=O)oc2cc(OP(=O)(O)O)ccc12)C(=O)O; RhodamineB = CCN(CC)c1ccc2c(-c3ccccc3C(=O)*)c3ccc(=[N+](CC)CC)cc-3oc2c1; Trimesoyl = O=C(c1cc(C(=O)[*:2])cc(C(=O)[*:3])c1)[*:1]; d(pT) = C[C@H](OP(=O)(O)O)[C@@H](N)C(=O)O; 2Nal = N[C@@H](Cc1ccc2ccccc2c1)C(=O)O; Pip = O=C(O)[C@@H]1CCCCN1; Dap = NC[C@H](N)C(=O)O; AEEA = NCCOCCOCC(=O)O; Sar = CNCC(=O)O
Columns and labels:
[1] = target: T1, Pin1 (Homo sapiens, UniProt Q13526, S16A/Y23A); test: Fluorescence anisotropy binding to Pin1; conditions: FITC-labeled peptide, FA analysis
T1 construct: The full-length human S16A/Y23A mutant Pin1 was expressed and purified from E. coli; made in house
Method: The gene coding for the catalytic domain of PTP1B (amino acids 1-321) was amplified by the polymerase chain reaction using PTP1B cDNA as template and oligonucleotides 5′-[…]-3′ and 5′-[…]-3′ as primers. […] Expression and purification of the ybbR-tagged PTP1B were carried out as previously described (Ren, L et al. Biochemistry 2011, 50, 2339-2356). […] The reaction mixture was passed through a G-25 fast-desalting column equilibrated in 30 mM HEPES, pH 7.4, 150 mM NaCl to remove any free dye molecules. The full-length human S16A/Y23A mutant Pin1 was expressed and purified from E. coli as previously described (Liu, T et al. J. Med. Chem. 2010, 53, 2494-2501).
FA experiments were carried out by incubating 100 nM FITC-labeled peptide with varying concentrations of protein in 20 mM HEPES (pH 7.4), 150 mM NaCl, 2 mM magnesium acetate, and 0.1% bovine serum albumin (BSA) for 2 h at room temperature. The FA values were measured on a Molecular Devices Spectramax M5 plate reader, with excitation and emission wavelengths at 485 and 525 nm, respectively. Equilibrium dissociation constants (KD) were determined by plotting the FA values as a function of protein concentration and fitting the curve to the following equation:
[formula] where Y is the FA value at a given protein concentration x, L is the peptide concentration, Qb/Qf is the correction factor for fluorophore-protein interaction, Amax is the maximum FA value when all of the peptides are bound to protein, while Amin is the minimum FA value when all of the peptides are free. FA competition assay was performed by incubating 100 nM FITC-labeled Pin1 inhibitor 5 with 1 μM Pin1, followed by the addition of 0-5 μM unlabeled inhibitor. The FA values were measured similarly on a pate reader. IC50 values were obtained by plotting the FA values against the competitor concentration and curve fitting using the four-parameter dose-response inhibition equation (Prism 6, GraphPad).

[2] = test system: HeLa cells; test: MTT proliferation assay with Pin1 inhibitors; assay type: cell-based, human; conditions: MTT
Method: HeLa cells (100 μL/each well, 5×10^4 cells/mL) were seeded in a 96-well culture plate and allowed to grow overnight in DMEM supplemented with 10% FBS. […] After that, 10 μL of a MTT stock solution (5 mg/mL) was added into each well. The plate was incubated at 37° C. for 4 h and 100 μL of SDS-HCl solubilizing solution was added into each well, followed by thorough mixing. The plate was incubated at 37° C. overnight and the absorbance of the formazan product was measured at 570 nm on a Molecular Devices Spectramax M5 plate reader. Each experiment was performed in triplicates and the cells untreated with peptide were used as control.

[3] = test system: HEK293 cells; test: Live-cell confocal microscopy of internalization; assay type: cell-based, human; conditions: for CAP fluorescence in cells (confocal): 5 μM pCAP peptide, 60 min
Method: To examine the internalization of rhodamine-labeled peptides, 5×10^4 HEK293 cells were plated in a 35 mm glass-bottomed microwell dish (MatTek). […] The cells were gently washed with DPBS twice and imaged on a Visitech Infinity 3 Hawk 2D-array live cell imaging confocal microscope. To detect the internalization of pCAP-containing peptides, HEK293 cells were similarly plated and incubated with the peptide solution (5 μM) at 37° C. for 60 min. After removal of the medium, the cells were gently washed with DPBS containing sodium pervanadate (1 mM) twice and incubated for 10 min in DPBS containing 5 μM nuclear staining dye DRAQS. The resulting cells were washed with DPBS twice and imaged on a spinning disk confocal microscope (UltraView Vox CSUX1 system). To monitor GFP internalization, 5×10^4 HEK293 cells were seeded in a 35 mm glass-bottomed microwell dish and cultured overnight. Cells were treated with cFΦR4-S-S-GFP (1 μM) at 37° C. for 2 h. After removal of the medium, the cells were incubated in DPBS containing 5 μM DRAQS for 10 min. The cells were washed with DPBS twice and imaged on a Visitech Infinity 3 Hawk 2D-array live cell imaging confocal microscope.

[4] = test system: HeLa cells; test: Cytoplasmic delivery of pCAP-containing peptides, flow cytometry; conditions: 10 μM peptide; for Mean fluorescence intensity (MFI) of CAP: 2 h
[5] = target: T1, Pin1; test: Pin1 binding by FA (FITC-labeled peptides)
[6] = test system: HeLa cells; test: Cellular uptake by flow cytometry; assay type: cell-based, human; conditions: 5 μM FITC-labeled peptide, 2 h
Method: The cellular uptake efficiency of peptide 37, peptide 1, and a previously reported membrane-impermeable monocyclic Pin1 inhibitor (Table 18, peptide 46) was assessed by incubating HeLa cells with the FITC-labeled peptides (5 μM) for 2 h and quantifying the total intracellular fluorescence by flow cytometry analysis. […] By contrast, cells treated with peptides 1 and 37 gave MFI values of 2562 and 8792, respectively. Thus, peptide 37 is internalized by HeLa cells ˜4-fold more efficiently than peptide 1. Presumably, the negative charged phosphate group of peptide 1 interacted electrostatically with the positively charged CPP motif and reduced the cellular uptake efficiency of the latter.

[7] = test system: HeLa cells; conditions: MTT
From the text: The effect of peptide 37 on the growth of HeLa cells was examined by using the MTT cell viability assay.

[8] = test system: HeLa cells; test: Western blot of PML protein level; assay type: cell-based, human; conditions: 0.2-5 μM
Method: FIGS. 38A, 38B, 38C, and 38D display cellular activity of peptide 37. (FIG. 38A) Cellular uptake of peptides 1, 37, and 46 (5 μM) by HeLa cells as analyzed by flow cytometry. MFI, mean fluorescence intensity; none, untreated cells (no peptide). (FIG. 38B) Anti-proliferative effect of peptides 37, 46, and 47 on HeLa cells as measured by MTT assay. (FIG. 38C) Western blots showing the effect of peptides 1, 37 and 47 on the protein level of PML in HeLa cells. β-Actin was used as loading control. (FIG. 38D) Quantification of western blot results from (FIG. 38C). Data reported were after background subtraction and represent the mean±SD from 3 independent experiments.
Finally, to ascertain that Pin1 is the molecular target of peptide 37 in vivo, the intracellular protein level of a well-established Pin1 substrate, […] (PML), was examined by western blot analysis. Pin1 negatively regulates the PML level in a phosphorylation-dependent manner and inhibition of Pin1 activity is expected to stabilize PML and increase its intracellular level. […] The effect was already significant at 0.2 μM inhibitor (1.8-fold increase in the PML level) and plateaued at ˜1 μM (3.3-fold increase). Again, bicyclic peptide 47 had no effect under the same conditions, while peptide 1 (the positive control, at 5 μM) increased the PML level by 3.1-fold.

C[C@@H]1NC(=O)[C@H](CCCNC(=N)N)NC(=O)[C@H](Cc2ccc3ccccc3c2)NC(=O)[C@@H]2CCCCN2C(=O)[C@@H](CC(=O)O)NC(=O)CN(C)C(=O)[C@@H]2CCCN2C(=O)c2cc3cc(c2)C(=O)NC[C@@H](C(=O)N[C@@H](CCCCN)C(N)=O)NC(=O)[C@H](CCCNC(=N)N)NC(=O)[C@H](CCCNC(=N)N)NC(=O)[C@H](CCCNC(=N)N)NC(=O)[C@H](CCCNC(=N)N)NC(=O)[C@H](Cc2ccc4ccccc4c2)NC(=O)[C@H](Cc2ccccc2)NC(=O)[C@H](CNC3=O)NC1=O [Peptide 9, bicyclo[Tm-(Pro-Sar-D-Asp-Pip-Nal-Arg-Ala)-Dap-(Phe-Nal-Arg-Arg-Arg-Arg-Dap)]-Lys] (P[Sar][dD][Pip][2Nal]RA[Dap]F[2Nal]RRRR[Dap]K-NH2; linker N-8-15 via Trimesoyl; C-terminus assumed)
KD [1]: abolished Pin1 inhibitory activity | Effect on cell growth [2]: no effect

cyclo(FΦRRRRQ)-miniPEG-DE(pCAP)LI (cyclo(F[2Nal]RRRRQ[AEEA]DE[Ala(7-OPO3H2-coumarin-4-yl)]LI); not fully specified (C-terminus, bridges); printed as cyclo(FΦRRRRQ)-miniPEG-DE(pCAP)LI) [cFΦR4-PCP]
CAP fluorescence in cells (confocal) [3]: diffuse blue fluorescence throughout the cell | Mean fluorescence intensity (MFI) of CAP [4]: 3510 AU | MFI of CAP in the presence of sodium pervanadate ([4]; PTP inhibitor sodium pervanadate): 70 AU

C[C@H](OP(=O)(O)O)[C@H]1NC(=O)CN(C)C(=O)[C@@H](C)NC(=O)[C@H](CCC(=O)N[C@@H](CCCCN)C(N)=O)NC(=O)[C@H](Cc2ccc(O)cc2)NC(=O)[C@H](Cc2ccc3ccccc3c2)NC(=O)[C@@H]2CCCCN2C1=O [Peptide 46, cyclo(D-Ala-Sar-D-pThr-Pip-Nal-Tyr-Gln)-Lys, reference compound] (cyclo([dA][Sar][d(pT)][Pip][2Nal]YE([Lys-NH2])); ring closure inferred)
Effect on cell growth [2]: no effect | Kd [5]: 240 ± 40 nM | Mean fluorescence intensity (MFI) [6]: 193 | Effect on cell growth [7]: neither peptide 46 nor 47 had any effect

bicyclo[Tm-(D-Ala-Sar-D-Thr-D-Ala-Nal-Arg-Ala-D-Ala)-Dap-(Phe-Nal-Arg-Arg-Arg-Arg-Dap)]-Lys [Peptide 47]
KD (μM) ([5]; FITC-labeled peptide, FA): No | Effect on the PML level [8]: no effect | Effect on cell growth [7]: neither peptide 46 nor 47 had any effect

cyclo(FΦRRRRQ)-AAAAA-K(Rho) (cyclo(F[2Nal]RRRRQAAAAAK(RhodamineB)); not fully specified (C-terminus, bridges); printed as cyclo(FΦRRRRQ)-AAAAA-K(Rho)) [cFΦR4-A5]
Intracellular fluorescence of rhodamine B-labeled peptide ([3]; 5 μM peptide, 2 h): both punctuate and diffuse fluorescence

RQIKIWFQNRRMKWKK-miniPEG-DE(pCAP)LI (RQIKIWFQNRRMKWKKXDEXLI; miniPEG linker; pCAP residue; (17)..(17) 8-amino-3,6-dioxaoctanoic acid; (20)..(20) phosphocoumaryl amino propionic acid) [Antp-PCP, reference compound]
CAP fluorescence in cells (confocal) [3]: weak fluorescence | Mean fluorescence intensity (MFI) of CAP [4]: 400 AU

Ac-DE(pCap)LI-NH2 (Ac-DE[Ala(7-OPO3H2-coumarin-4-yl)]LI-NH2; SMILES CC[C@H](C)[C@H](NC(=O)[C@H](CC(C)C)NC(=O)[C@H](Cc1cc(=O)oc2cc(OP(=O)(O)O)ccc12)NC(=O)[C@H](CCC(=O)O)NC(=O)[C@H](CC(=O)O)NC(C)=O)C(N)=O) [untagged PCP, reference compound]
CAP fluorescence in cells (confocal) [3]: failed to enter cells | Mean fluorescence intensity (MFI) of CAP [4]: 30 AU

RRRRRRRRR-miniPEG-DE(pCAP)LI (RRRRRRRRRXDEXLI; miniPEG linker, pCAP residue; (10)..(10) 8-amino-3,6-dioxaoctanoic acid; (13)..(13) phosphocoumaryl amino propionic acid) [Peptide R9-PCP, reference compound]
CAP fluorescence in cells (confocal) [3]: weak fluorescence | Mean fluorescence intensity (MFI) of CAP [4]: 960 AU

RKKRRQRRR-miniPEG-DE(pCAP)LI (RKKRRQRRR[AEEA]DE[Ala(7-OPO3H2-coumarin-4-yl)]LI) [Tat-PCP, reference compound]
CAP fluorescence in cells (confocal) [3]: weak fluorescence | Mean fluorescence intensity (MFI) of CAP [4]: 290 AU

From patent US10815276B2, “Cell penetrating peptides and methods of making and using thereof” (Entrada Therapeutics, Inc., priority 2014, dated 2020)
